Data: ChEMBL document CHEMBL1201862, “PubChem BioAssay data set” (2004)
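Five concentrations, 48 hours, 96-well plates. GI50 is the concentration that inhibits growth by half.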 Calls of active or inactive are those of the source. No stated cut-off is given here; in the data, active = GI50 up to about 1.1 µM and inactive = higher.

What was measured:
Experiment in all cases: DTP human tumour cell line panel, 48 h
[1] = system: U-251
[2] = system: LOX IMVI
[3] = system: SF-268
[4] = system: HOP-92
[5] = system: OVCAR-8
[6] = system: HCT-15
[7] = system: SF-295
[8] = system: TK-10
[9] = system: HCT-116
[10] = system: IGROV-1
[11] = system: SK-OV-3
[12] = system: CAKI-1
[13] = system: OVCAR-5
[14] = system: 786-0
[15] = system: RXF 393
[16] = system: SR
[17] = system: DU-145
[18] = system: MDA-MB-231
[19] = system: RPMI-8226
[20] = system: MDA-MB-435

Measured: GI50

CCOC(=O)C1=C(Nc2ccc(Cl)cc2Cl)OC/C1=N\NS(=O)(=O)c1ccc(C)cc1
> 100 µM: [6]
inactive: [1] > 100 µM | [2] > 100 µM | [3] > 100 µM | [4] > 100 µM | [5] > 100 µM | [7] > 100 µM | [8] > 100 µM | [9] > 100 µM | [10] > 100 µM | [11] > 100 µM | [12] > 100 µM | [13] > 100 µM | [14] > 100 µM | [15] > 100 µM | [16] > 100 µM

CCN(CC)CCCNc1nc(=O)[nH]c(C)c1C(=O)Nc1cccc2cc3ccccc3cc12
inactive: [1] > 100 µM | [17] > 100 µM | [2] > 100 µM | [4] 62.2 µM | [5] > 100 µM | [7] > 100 µM | [8] > 100 µM | [9] > 100 µM | [10] > 100 µM | [11] > 100 µM | [12] > 100 µM | [18] 82.4 µM | [13] > 100 µM | [14] > 100 µM | [19] > 100 µM | [15] 78.7 µM | [20] > 100 µM
> 100 µM: [6]

Cc1cc(Cl)cc2c1NC(=O)C2(O)C(C)C(=O)c1ccc(Cl)cc1 (stereo not given)
> 89.1 µM: [6]
inactive: [1] 72.4 µM | [2] > 100 µM | [3] > 71.9 µM | [4] 33.9 µM | [5] > 85.9 µM | [7] > 92.5 µM | [8] > 100 µM | [9] > 74.1 µM | [10] > 81.3 µM | [11] > 100 µM | [12] > 92.5 µM | [13] > 100 µM | [14] 85.7 µM | [19] 31.8 µM | [15] 47.8 µM | [16] > 66.2 µM

CCOC1=CP(=O)(OCC)CC(C)=C1Cl (stereo not given)
inactive: [1] > 100 µM | [2] > 100 µM | [3] > 100 µM | [4] > 100 µM | [5] > 100 µM | [7] > 100 µM | [8] > 100 µM | [9] > 100 µM | [10] > 100 µM | [11] > 100 µM | [12] > 100 µM | [13] > 100 µM | [14] > 100 µM | [19] > 100 µM | [15] > 10 µM | [16] > 100 µM

Cc1ccccc1C(=O)c1c(O)c2c(c(O)c1Br)CCCC2
16.7 µM: [6]
inactive: [1] 16.7 µM | [3] 15 µM | [4] 23.2 µM | [5] 17.3 µM | [7] 21.2 µM | [8] 17.8 µM | [9] 16.6 µM | [10] 20.7 µM | [11] 21.8 µM | [12] 20.1 µM | [13] 20 µM | [14] 14.5 µM | [19] 20.1 µM | [15] 18.7 µM | [16] 16.2 µM

N#Cc1c(-c2ccccc2)cc(-c2ccccc2)n(C2OCC(O)C(O)C2O)c1=S (stereo not given)
active: [18] 0.946 µM
25.4 µM: [6]
inactive: [1] 15.3 µM | [17] 19.7 µM | [2] 18.1 µM | [3] 23.4 µM | [5] 20.8 µM | [7] 18.5 µM | [8] 27.9 µM | [9] 14.7 µM | [10] 17.7 µM | [11] 11.7 µM | [12] 32.5 µM | [13] 24.8 µM | [14] 25.7 µM | [19] 10.4 µM | [15] 18.4 µM | [20] 19 µM

Cc1ccc(S(=O)(=O)NC(=O)Nc2ccc(C(=O)O)cc2)cc1
> 100 µM: [6]
inactive: [1] > 100 µM | [17] > 100 µM | [2] > 100 µM | [3] > 100 µM | [4] > 100 µM | [5] > 100 µM | [7] > 100 µM | [8] > 100 µM | [9] > 100 µM | [10] > 100 µM | [11] > 100 µM | [18] > 100 µM | [13] > 100 µM | [14] > 100 µM | [19] > 100 µM | [15] > 100 µM

CC(C)C(N)C(=O)NC(CCC(=O)NCCCCC(N)C(=O)NCCCNc1ccc([N+](=O)[O-])c2[nH]c3ccccc3c(=O)c12)C(N)=O (stereo not given)
41.2 µM: [6]
inactive: [1] 26.7 µM | [17] > 100 µM | [2] 21 µM | [3] 58.7 µM | [4] 24.4 µM | [5] 31.2 µM | [7] 55.7 µM | [8] > 100 µM | [9] 21.7 µM | [11] 44.3 µM | [12] > 100 µM | [18] 41.2 µM | [13] > 100 µM | [14] 35.8 µM | [19] 33.7 µM | [15] 11 µM | [20] 67.9 µM

Cc1cc(O)c2c(c1)C(=O)c1cc(O)cc(O)c1C2=O [EMODIN]
22.9 µM: [6]
inactive: [1] 24.7 µM | [2] 15.9 µM | [3] 22 µM | [4] 14.4 µM | [7] 23.3 µM | [8] 39.4 µM | [9] 24 µM | [11] 30.7 µM | [12] 17.1 µM | [13] 39.4 µM | [19] 17.7 µM | [15] 41 µM | [16] 23.4 µM

C[N+](C)(CCNC(=O)c1cccc2cc3ccccc3nc12)Cc1ccc([N+](=O)[O-])s1
> 25 µM: [6]
inactive: [1] > 25 µM | [17] > 25 µM | [2] > 25 µM | [3] > 25 µM | [4] > 25 µM | [5] > 25 µM | [7] > 25 µM | [8] > 25 µM | [9] > 25 µM | [10] > 25 µM | [11] > 25 µM | [12] 14.9 µM | [18] > 25 µM | [13] > 25 µM | [14] > 25 µM | [19] > 25 µM | [15] > 25 µM | [20] > 25 µM

CCOC(=O)NC(=O)c1cn(CCSCCOC(=O)NCCCCCCNC(=O)OCCSCCn2cc(C(=O)NC(=O)OCC)c(=O)n(C)c2=O)c(=O)n(C)c1=O
inactive: [1] 16.8 µM | [2] 32.1 µM | [3] 24 µM | [4] 20.9 µM | [5] 20.1 µM | [7] 75.7 µM | [8] 44.3 µM | [9] 19.2 µM | [11] 34.7 µM | [13] > 100 µM | [14] 30.3 µM | [19] 20.5 µM | [15] 27.6 µM | [16] 13.4 µM
86.3 µM: [6]

CS/C(=N\C(=S)N(C)C)N(c1ccccc1)c1nc(N(C)C)s[s+]1
19.8 µM: [6]
inactive: [1] 6.84 µM | [2] 5.74 µM | [3] 12.1 µM | [4] 20.9 µM | [5] 10.4 µM | [7] 16.7 µM | [8] 40.3 µM | [9] 10 µM | [10] 77.3 µM | [11] 41.3 µM | [12] 29 µM | [14] 16.4 µM | [19] 1.84 µM | [15] 14 µM | [16] 3.98 µM

O=c1nc(-c2ccccc2)scc1-c1ccccc1
inactive: [1] 98.6 µM | [3] 86.3 µM | [4] 67.9 µM | [5] > 100 µM | [7] > 100 µM | [8] > 100 µM | [9] > 100 µM | [10] > 100 µM | [11] > 100 µM | [12] > 100 µM | [14] 78.3 µM | [19] > 100 µM | [15] 74.5 µM | [16] > 100 µM
> 100 µM: [6]

COC(=O)C1CCC[C@H]2C(CO)=C(C)C(=O)[C@@H]12 (stereo not given in full)
> 100 µM: [6]
inactive: [1] > 100 µM | [3] > 100 µM | [4] > 100 µM | [5] > 100 µM | [7] > 100 µM | [8] > 100 µM | [9] > 100 µM | [10] > 100 µM | [11] > 100 µM | [12] > 100 µM | [13] > 100 µM | [14] > 100 µM | [19] > 100 µM | [15] > 100 µM | [16] > 100 µM

N#C/N=C(/N)NCO
> 40 µM: [6]
inactive: [1] > 53.7 µM | [2] > 39.9 µM | [3] 63.5 µM | [4] > 100 µM | [5] > 100 µM | [7] > 100 µM | [8] > 100 µM | [9] > 46 µM | [10] > 100 µM | [11] > 100 µM | [12] > 100 µM | [13] > 100 µM | [14] > 43.8 µM | [19] > 48.2 µM | [15] 16.5 µM | [16] 9.29 µM

COCCNc1cncc(C(N)=O)c1
inactive: [1] > 100 µM | [17] > 100 µM | [3] > 100 µM | [5] > 100 µM | [7] > 100 µM | [8] > 100 µM | [9] > 100 µM | [10] > 100 µM | [11] > 100 µM | [12] > 100 µM | [18] > 100 µM | [13] > 100 µM | [14] > 100 µM | [16] > 100 µM
> 100 µM: [6]

COC(=O)/C(=N/O)C(C(=O)OC)C(=O)C(=O)Nc1c(Cl)cc(C)cc1S(=O)(=O)O (stereo not given)
inactive: [1] > 100 µM | [2] 41 µM | [3] > 100 µM | [4] > 100 µM | [5] > 100 µM | [7] > 100 µM | [8] > 100 µM | [9] 43.8 µM | [10] > 100 µM | [11] > 100 µM | [12] > 100 µM | [13] > 100 µM | [14] > 100 µM | [19] 23.5 µM | [15] > 100 µM | [16] 20.1 µM
> 100 µM: [6]
